Laboratory results taken from ChEMBL document CHEMBL5724914, “Linking interpersonal differences in gut microbiota composition and drug biotransformation activity” (2024).

Tests used:
[1] = The drug is tested on WLS-010 corresponding to human gut metagenome with ENA study accession number: PRJEB37062 and ENA sample accession number: ERS12561743 for biotransformation under anaerobic condition. The drug concentrations were measured over 9 timepoints collected between 0 and 24 hours of incubation by liquid-chromatography-coupled mass spectrometry (LC–MS); conditions: 2 µM
[2] = The drug is tested on Z-029 corresponding to rat gut metagenome with ENA study accession number: PRJEB37062 and ENA sample accession number: ERS12561828 for biotransformation under anaerobic condition. The drug concentrations were measured over 9 timepoints collected between 0 and 24 hours of incubation by liquid-chromatography-coupled mass spectrometry (LC–MS); conditions: 2 µM
[3] = human gut metagenome, 24 h, 2 µM
[4] = human gut metagenome, 24 h, 2 µM; remark: listed apart in the source
[5] = human gut metagenome, 24 h, 2 µM; remark: listed apart in the source
[6] = The drug is tested on Z-026 corresponding to metagenome with ENA study accession number: PRJEB37062 and ENA sample accession number: ERS12561825 for biotransformation under anaerobic condition. The drug concentrations were measured over 9 timepoints collected between 0 and 24 hours of incubation by liquid-chromatography-coupled mass spectrometry (LC–MS); conditions: 2 µM
[7] = The drug is tested on Z-028 corresponding to mouse gut metagenome with ENA study accession number: PRJEB37062 and ENA sample accession number: ERS12561827 for biotransformation under anaerobic condition. The drug concentrations were measured over 9 timepoints collected between 0 and 24 hours of incubation by liquid-chromatography-coupled mass spectrometry (LC–MS); conditions: 2 µM
[8] = human gut metagenome, 24 h, 2 µM; remark: listed apart in the source
[9] = The drug is tested on Z-014 corresponding to rat gut metagenome with ENA study accession number: PRJEB37062 and ENA sample accession number: ERS12561814 for biotransformation under anaerobic condition. The drug concentrations were measured over 9 timepoints collected between 0 and 24 hours of incubation by liquid-chromatography-coupled mass spectrometry (LC–MS); conditions: 2 µM
[10] = The drug is tested on WLS-007 corresponding to human gut metagenome with ENA study accession number: PRJEB37062 and ENA sample accession number: ERS12561742 for biotransformation under anaerobic condition. The drug concentrations were measured over 9 timepoints collected between 0 and 24 hours of incubation by liquid-chromatography-coupled mass spectrometry (LC–MS); conditions: 2 µM
[11] = human gut metagenome, 24 h, 2 µM; remark: listed apart in the source
[12] = The drug is tested on WLS-310 corresponding to human gut metagenome with ENA study accession number: PRJEB37062 and ENA sample accession number: ERS12561785 for biotransformation under anaerobic condition. The drug concentrations were measured over 9 timepoints collected between 0 and 24 hours of incubation by liquid-chromatography-coupled mass spectrometry (LC–MS); conditions: 2 µM
[13] = human gut metagenome, 24 h, 2 µM; remark: listed apart in the source
[14] = The drug is tested on Z-016 corresponding to mouse gut metagenome with ENA study accession number: PRJEB37062 and ENA sample accession number: ERS12561815 for biotransformation under anaerobic condition. The drug concentrations were measured over 9 timepoints collected between 0 and 24 hours of incubation by liquid-chromatography-coupled mass spectrometry (LC–MS); conditions: 2 µM
[15] = human gut metagenome, 24 h, 2 µM; remark: listed apart in the source
[16] = The drug is tested on Z-017 corresponding to mouse gut metagenome with ENA study accession number: PRJEB37062 and ENA sample accession number: ERS12561816 for biotransformation under anaerobic condition. The drug concentrations were measured over 9 timepoints collected between 0 and 24 hours of incubation by liquid-chromatography-coupled mass spectrometry (LC–MS); conditions: 2 µM
[17] = The drug is tested on Z-019 corresponding to rat gut metagenome with ENA study accession number: PRJEB37062 and ENA sample accession number: ERS12561818 for biotransformation under anaerobic condition. The drug concentrations were measured over 9 timepoints collected between 0 and 24 hours of incubation by liquid-chromatography-coupled mass spectrometry (LC–MS); conditions: 2 µM
[18] = The drug is tested on Z-008 corresponding to metagenome with ENA study accession number: PRJEB37062 and ENA sample accession number: ERS12561808 for biotransformation under anaerobic condition. The drug concentrations were measured over 9 timepoints collected between 0 and 24 hours of incubation by liquid-chromatography-coupled mass spectrometry (LC–MS); conditions: 2 µM
[19] = human gut metagenome, 24 h, 2 µM; remark: listed apart in the source
[20] = The drug is tested on Z-001 corresponding to mouse gut metagenome with ENA study accession number: PRJEB37062 and ENA sample accession number: ERS12561801 for biotransformation under anaerobic condition. The drug concentrations were measured over 9 timepoints collected between 0 and 24 hours of incubation by liquid-chromatography-coupled mass spectrometry (LC–MS); conditions: 2 µM
Also: call rule not given here.

SMILES | Bacterial Biotransformation [1] | Bacterial Biotransformation [2] | Bacterial Biotransformation [3] | Bacterial Biotransformation [4] | Bacterial Biotransformation [5] | Bacterial Biotransformation [6] | Bacterial Biotransformation [7] | Bacterial Biotransformation [8] | Bacterial Biotransformation [9] | Bacterial Biotransformation [10] | Bacterial Biotransformation [11] | Bacterial Biotransformation [12] | Bacterial Biotransformation [13] | Bacterial Biotransformation [14] | Bacterial Biotransformation [15] | Bacterial Biotransformation [16] | Bacterial Biotransformation [17] | Bacterial Biotransformation [18] | Bacterial Biotransformation [19] | Bacterial Biotransformation [20]
Cc1ccc(-c2cc(C(F)(F)F)nn2-c2ccc(S(N)(=O)=O)cc2)cc1 [CELECOXIB] | Compound metabolized | Compound NOT metabolized | Compound metabolized | Compound metabolized | Compound metabolized | Compound NOT metabolized | Compound NOT metabolized | Compound metabolized | Compound NOT metabolized | Compound metabolized | Compound NOT metabolized | Compound NOT metabolized | Compound NOT metabolized | Compound NOT metabolized | Compound NOT metabolized | Compound NOT metabolized | Compound NOT metabolized | Compound NOT metabolized | Compound metabolized | Compound NOT metabolized
Clc1ccc(Cn2c(CN3CCCC3)nc3ccccc32)cc1 [CLEMIZOLE] | Compound NOT metabolized | Compound NOT metabolized | Compound metabolized | Compound NOT metabolized | Compound metabolized | Compound NOT metabolized | Compound NOT metabolized | Compound NOT metabolized | Compound NOT metabolized | Compound metabolized | Compound metabolized | Compound metabolized | Compound NOT metabolized | Compound NOT metabolized | Compound NOT metabolized | Compound NOT metabolized | Compound NOT metabolized | Compound NOT metabolized | Compound metabolized | Compound metabolized
CN1CCN(C2=Nc3cc(Cl)ccc3Nc3ccccc32)CC1 [CLOZAPINE] | Compound NOT metabolized | Compound NOT metabolized | Compound NOT metabolized | Compound NOT metabolized | Compound metabolized | Compound NOT metabolized | Compound NOT metabolized | Compound metabolized | Compound NOT metabolized | Compound NOT metabolized | Compound NOT metabolized | Compound metabolized | Compound NOT metabolized | Compound NOT metabolized | Compound NOT metabolized | Compound NOT metabolized | Compound NOT metabolized | Compound NOT metabolized | Compound NOT metabolized | Compound NOT metabolized
COc1cc2c(c(OC)c1OC)-c1ccc(OC)c(=O)cc1[C@@H](NC(C)=O)CC2 [COLCHICINE] | Compound metabolized | Compound NOT metabolized | Compound metabolized | Compound metabolized | Compound metabolized | Compound NOT metabolized | Compound NOT metabolized | Compound metabolized | Compound NOT metabolized | Compound metabolized | Compound NOT metabolized | Compound metabolized | Compound NOT metabolized | Compound metabolized | Compound NOT metabolized | Compound NOT metabolized | Compound NOT metabolized | Compound NOT metabolized | Compound NOT metabolized | Compound NOT metabolized
CC(=O)OCC(=O)[C@@]12N=C(C)O[C@@H]1C[C@H]1[C@@H]3CCC4=CC(=O)C=C[C@]4(C)[C@H]3[C@@H](O)C[C@@]12C [DEFLAZACORT] | Compound metabolized | Compound NOT metabolized | Compound metabolized | Compound metabolized | Compound metabolized | Compound metabolized | Compound metabolized | Compound metabolized | Compound metabolized | Compound metabolized | Compound metabolized | Compound metabolized | Compound metabolized | Compound metabolized | Compound NOT metabolized | Compound metabolized | Compound NOT metabolized | Compound metabolized | Compound metabolized | Compound metabolized
